Experimental data as given in patent US8067442B2, “Heterocyclic antiviral compounds” (Roche Palo Alto LLC, priority 2008, dated 2011).
pIC50: −log10 of the molar value.

What was measured:
[1] = biological target: T1, HCV polymerase (NS5B570n-Con1) (Hepatitis C virus genotype 1b, UniProt Q9WMX2); experiment: biochemical; design: species or system HCV Con1 strain
T1 construct: a 21 amino acid C-terminal deletion of full-length HCV polymerase; made in house; host or cells: E. coli BL21(DE3) pLysS, plasmid pET17b
Procedure: The enzymatic activity of HCV polymerase (NS5B570n-Con1) was measured as the incorporation of radiolabeled nucleotide monophosphates into acid insoluble RNA products. Unincorporated radiolabeled substrate was removed by filtration and scintillant was added to the washed and dried filter plate containing radiolabeled RNA product. The amount of RNA product generated by NS5B570n-Con1 at the end of the reaction was directly proportional to the amount of light emitted by the scintillant.
The HCV polymerase used in the enzymatic activity assay is a 21 amino acid C-terminal deletion of full-length HCV polymerase derived from HCV Con1 strain, genotype 1b (GenBank accession number AJ242654) (NS5B570n-Con1). The NS5B570n-Con1 was sub-cloned downstream to the T7 promoter of the plasmid expression construct pET17b and transformed into E. coli strain BL21(DE3) pLysS for protein expression. A single colony was used to start an innoculum for a 10 L culture in LB media supplemented with 100 μg/mL ampicillin at 37° C. Protein expression was induced by the addition of 0.25 mM isopropyl-β-D-thiogalactopyranoside (IPTG) when the optical density of the culture at […] was 0.8. Induction of protein expression was carried out at 30° C. for 16 h after which the cells were harvested by centrifugation. NS5B570n-Con1 was purified to homogeneity using a three-column purification protocol including subsequent column chromatography on Ni-NTA, SP-Sepharose HP and Superdex 75 resins.
Enzymatic reactions in the presence of cIRES RNA template (see section [0300]) contained 20 nM cIRES RNA, 20 nM NS5B570n-Con1 enzyme, 0.5 μCi of tritiated UTP (Perkin Elmer catalog no. TRK-412; specific activity: 30 to 60 Ci/mmol), 1 μM each ATP, CTP, and GTP, 40 mM Tris-HCl pH 8.0, 40 mM NaCl, 4 mM DTT (dithiothreitol), 4 mM MgCl2, 5 μl of compound serial diluted in DMSO, and nuclease-free water to a final reaction volume of 50 μl. Enzymatic reactions in the presence of 20 nM cIRES template, 20 nM NS5B570n-Con1 enzyme, 1 μCi of tritiated UTP (Perkin Elmer catalog no. TRK-412; specific activity: 30 to 60 Ci/mmol), 40 mM Tris-HCl pH 8.0, 40 mM NaCl, 4 mM DTT (dithiothreitol), 4 mM MgCl2, 5 μl of compound serial diluted in DMSO, and nuclease-free water to a final reaction volume of 50 μl. Reaction mixtures were assembled in 96-well filter plates (cat #MADVNOB, Millipore Co.) and incubated for 2 h at 30° C. Reactions were stopped by addition of 10% final (v/v) trichloroacetic acid and incubated for 40 min at 4° C. Reactions were filtered, washed with 8 reaction volumes of 10% (v/v) trichloroacetic acetic acid, 4 reaction volumes of 70% (v/v) ethanol, air dried, and 25 μl of scintillant (Microscint 20, Perkin-Elmer) was added to each reaction well.
Two RNA templates can be used to assay compounds described herein. The cIRES RNA template is 377 nucleotide long and consisting of a partial complementary sequence (36 nucleotides) of the core protein, followed by 341 nucleotide of the complementary sequence of the internal ribosome entry site. The poly A RNA template (GE Amersham catalog number 27-4110) was a homopolymeric RNA pre-annealed to a oligo(rU)16 primer at a molar ratio of 3-to-1 (primer-template). The cIRES template was used in the assay unless otherwise noted.
The amount of light emitted from the scintillant was converted to counts per minute (CPM) on a Topcount® plate reader (Perkin-Elmer, Energy Range: Low, Efficiency Mode Normal, Count Time: 1 min, Background Subtract: none, Cross talk reduction: Off).
Data was analyzed in Excel® (Microsoft®) and ActivityBase® (Idbs®). The reaction in the absence of enzyme was used to determine the background signal, which was subtracted from the enzymatic reactions. […] All data was expressed as a percentage of the positive control. The compound concentration at which the enzyme-catalyzed rate of RNA synthesis was reduced by 50% (IC50) was calculated by fitting

Compound: Cn1cc(C(=O)N2CC[C@H](CNS(C)(=O)=O)C2)c2cc(-c3ccc[nH]c3=O)cc(C(C)(C)C)c21 [Compound I-111, N-{(S)-1-[7-tert-Butyl-1-methyl-5-(2-oxo-1,2-dihydro-pyridin-3-yl)-1H-indole-3-carbonyl]-pyrrolidin-3-ylmethyl}-methanesulfonamide]
- pIC50 [1]: 8.10
- melting point: 168 to 170 °C

Compound: CC(C)(C)c1cc(-c2ccc[nH]c2=O)cc2c(-c3cccc(NS(C)(=O)=O)c3)coc12 [Compound I-82, N-{3-[7-tert-Butyl-5-(2-oxo-1,2-dihydro-pyridin-3-yl)-benzofuran-3-yl]-phenyl}-methanesulfonamide]
- pIC50 [1]: 6.95
- melting point: 227 to 230 °C

Compound: CC(C)(C)c1cc(-c2ccc[nH]c2=O)cc2ccoc12 [Compound I-2, 3-(7-tert-Butyl-benzofuran-5-yl)-1H-pyridin-2-one]
- pIC50 [1]: 6.69
- melting point: 217 to 218 °C

Compound: CC(C)(C)c1cc(-c2ccc[nH]c2=O)cc2c(-c3ccc(N)nc3)coc12 [Compound I-96, 3-[3-(6-Amino-pyridin-3-yl)-7-tert-butyl-benzofuran-5-yl]-1H-pyridin-2-one]
- pIC50 [1]: 7.33
- melting point: 255 to 257 °C

Compound: CC(NS(C)(=O)=O)c1ccc(-c2coc3c(C(C)(C)C)cc(-c4ccc[nH]c4=O)cc23)cc1 (centres unmarked) [Compound I-88, N-(1-{4-[7-tert-Butyl-5-(2-oxo-1,2-dihydro-pyridin-3-yl)-benzofuran-3-yl]-phenyl}-ethyl)-methanesulfonamide]
- pIC50 [1]: 8.10
- melting point: 255 to 257 °C

Compound: CC(C)(C)c1cc(-c2ccc[nH]c2=O)cc2c(C(=O)N3CCC(CN)C3)coc12 (centres unmarked) [Compound I-49]
- pIC50 [1]: 6.98
- melting point: > 300 °C

Compound: CC(C)(C)c1cc(-c2ccc[nH]c2=O)cc2c(-c3ccc(NS(C)(=O)=O)cc3)coc12 [Compound I-79, N-{4-[7-tert-Butyl-5-(2-oxo-1,2-dihydro-pyridin-3-yl)-benzofuran-3-yl]-phenyl}-methanesulfonamide]
- pIC50 [1]: 7.57
- melting point: 182 to 184 °C

Compound: CN(C[C@H]1CCN(C(=O)c2coc3c(C(C)(C)C)cc(-c4ccc[nH]c4=O)cc23)C1)S(C)(=O)=O [Compound I-105, N-{(S)-1-[7-tert-Butyl-5-(2-oxo-1,2-dihydro-pyridin-3-yl)-benzofuran-3-carbonyl]-pyrrolidin-3-ylmethyl}-N-methyl-methanesulfonamide]
- pIC50 [1]: 7.60
- melting point: 155 to 157 °C

Compound: CC(C)(C)c1cc(-c2ccc[nH]c2=O)cc2c(-c3ccc(C(N)=O)cc3)coc12 [Compound I-87]
- pIC50 [1]: 8.70
- melting point: 282 to 284 °C

Compound: CC(C)S(=O)(=O)NC[C@H]1CCN(C(=O)c2coc3c(C(C)(C)C)cc(-c4ccc[nH]c4=O)cc23)C1 [Compound I-108]
- pIC50 [1]: 7.60
- melting point: 163 to 165 °C

Compound: CN(Cc1ccc(-c2coc3c(C(C)(C)C)cc(-c4ccc[nH]c4=O)cc23)cc1)S(C)(=O)=O [Compound I-77]
- pIC50 [1]: 7.44
- melting point: 243 to 245 °C

Compound: CC(C)(C)c1cc(-c2ccc[nH]c2=O)cc2c(C(=O)N3CC[C@H](CNS(C)(=O)=O)C3)coc12 [Compound I-72]
- pIC50 [1]: 8.10
- melting point: 258 to 260 °C

Compound: CC(C)(C)c1cc(-c2ccc[nH]c2=O)cc2c(-c3ccccc3)coc12 [Compound I-24]
- pIC50 [1]: 7.72
- melting point: 257 to 258 °C

Compound: CC(C)(C)c1cc(-c2ccc[nH]c2=O)cc2c(-c3cnc(N)nc3)coc12 [Compound I-89]
- pIC50 [1]: 6.16
- melting point: > 300 °C

Compound: Cc1ccc(-c2cc(C(C)(C)C)c3occ(C(=O)N4CC[C@H](CNS(C)(=O)=O)C4)c3c2)c(=O)[nH]1 [Compound I-98]
- pIC50 [1]: 7.80
- melting point: 178 to 180 °C

Compound: CC(C)(C)c1cc(-c2ccc[nH]c2=O)cc2c(C(=O)N3CCCC(CN)C3)coc12 (centres unmarked) [Compound I-50]
- pIC50 [1]: 7.29
- melting point: 150 to 155 °C

Compound: COc1cccc(-c2coc3c(C(C)(C)C)cc(-c4ccc[nH]c4=O)cc23)c1 [Compound I-33]
- pIC50 [1]: 7.85
- melting point: 204 to 205 °C

Compound: CC(C)(C)c1cc(-c2ccc[nH]c2=O)cc2c(C(=O)N3CC[C@H](CNS(=O)(=O)C4CC4)C3)coc12 [Compound I-107]
- pIC50 [1]: 7.77
- melting point: 158 to 160 °C

Compound: CC(C)(C)c1cc(-c2cc(F)c[nH]c2=O)cc2c(C(=O)N3CC[C@H](CNS(C)(=O)=O)C3)coc12 [Compound I-92]
- pIC50 [1]: 7.54
- melting point: 296 to 298 °C

Compound: COCc1cc(CNS(C)(=O)=O)ccc1-c1coc2c(C(C)(C)C)cc(-c3ccc[nH]c3=O)cc12 [Compound I-97, N-{4-[7-tert-Butyl-5-(2-oxo-1,2-dihydro-pyridin-3-yl)-benzofuran-3-yl]-3-methoxymethyl-benzyl}-methanesulfonamide]
- pIC50 [1]: 6.29
- melting point: 128 to 130 °C

Compound: CC(C)(C)c1cc(-c2ccc[nH]c2=O)cc2c(C(=O)N3CC(O)C3)coc12 [Compound I-102]
- pIC50 [1]: 6.87
- melting point: 264 to 266 °C

Compound: CC(C)(C)c1cc(-c2ccc[nH]c2=O)cc2c(C(=O)N3CCSC3)coc12 [Compound I-71]
- pIC50 [1]: 7.30

Compound: CC(C)(C)c1cc(-c2ccc[nH]c2=O)cc2c(C(=O)N3CCC(NC(=O)C(F)(F)F)CC3)coc12 [Compound I-55]
- pIC50 [1]: 5.64

Compound: COCCN(CCOC)C(=O)c1coc2c(C(C)(C)C)cc(-c3ccc[nH]c3=O)cc12 [Compound I-19]
- pIC50 [1]: 5.36

Compound: CC1(C)CCCN(C(=O)c2coc3c(C(C)(C)C)cc(-c4ccc[nH]c4=O)cc23)C1 [Compound I-69]
- pIC50 [1]: 6.08

Compound: CC(C)(C)c1cc(-c2ccc[nH]c2=O)cc2c(C(=O)N3CCOC(CO)C3)coc12 (centres unmarked) [Compound I-15]
- pIC50 [1]: 6.49

Compound: Cn1cc(C#N)c2cc(-c3ccc[nH]c3=O)cc(C(C)(C)C)c21 [Compound I-110]
- pIC50 [1]: 6.50

Compound: CC(C)(C)c1cc(-c2ccc[nH]c2=O)cc2c(-c3ccc(CNS(C)(=O)=O)nc3)coc12 [Compound I-93, N-{5-[7-tert-Butyl-5-(2-oxo-1,2-dihydro-pyridin-3-yl)-benzofuran-3-yl]-pyridin-2-ylmethyl}-methanesulfonamide]
- pIC50 [1]: 7.92

Compound: CC(C)(C)c1cc(-c2ccc[nH]c2=O)cc2c(C(=O)N3CCC[C@H](NS(C)(=O)=O)C3)coc12 [Compound I-47]
- pIC50 [1]: 6.76

Compound: CC(C)(C)c1cc(-c2ccc[nH]c2=O)cc2c(-c3cccc(CN)c3)coc12 [Compound I-62]
- pIC50 [1]: 6.05

Compound: CC(C)(C)c1cc(-c2ccc[nH]c2=O)cc2c(C(=O)N3CCNCC3)coc12 [Compound I-28]
- pIC50 [1]: 5.71

Compound: CC(C)(C)c1cc(-c2ccc[nH]c2=O)cc2c(C(=O)N3CCC[C@H]3CO)coc12 [Compound I-17]
- pIC50 [1]: 6.95

Compound: COC(=O)C1COc2c1cc(-c1ccc[nH]c1=O)cc2C(C)(C)C (centres unmarked) [Compound I-26, 7-tert-Butyl-5-(2-oxo-1,2-dihydro-pyridin-3-yl)-2,3-dihydro-benzo furan-3-carboxylic acid methyl ester]
- pIC50 [1]: 7.43

Compound: CC(C)NC(=O)c1coc2c(C(C)(C)C)cc(-c3ccc[nH]c3=O)cc12 [Compound I-9]
- pIC50 [1]: 5.81

Compound: CC(C)(C)c1cc(-c2ccc[nH]c2=O)cc2c(-c3ccc(C#N)cc3)coc12 [Compound I-35]
- pIC50 [1]: 7.14
